Tests used:
PikI [1] = target: T1, PikI (Dictyostelium discoideum, UniProt Q55GN6); conditions: product PI(4,5)P2
T1 construct: gene DDB_G0267588

PikI [2] = target: T2, PikI (Dictyostelium discoideum, UniProt Q55GN6, T262E); conditions: product PI(4,5)P2; phosphomimetic
T2 construct: gene DDB_G0267588

PikI [3] = target: T3, PikI (Dictyostelium discoideum, UniProt Q55GN6, T262A); conditions: product PI(4,5)P2
T3 construct: gene DDB_G0267588
T3 sequence (Q55GN6 whole entry T262A): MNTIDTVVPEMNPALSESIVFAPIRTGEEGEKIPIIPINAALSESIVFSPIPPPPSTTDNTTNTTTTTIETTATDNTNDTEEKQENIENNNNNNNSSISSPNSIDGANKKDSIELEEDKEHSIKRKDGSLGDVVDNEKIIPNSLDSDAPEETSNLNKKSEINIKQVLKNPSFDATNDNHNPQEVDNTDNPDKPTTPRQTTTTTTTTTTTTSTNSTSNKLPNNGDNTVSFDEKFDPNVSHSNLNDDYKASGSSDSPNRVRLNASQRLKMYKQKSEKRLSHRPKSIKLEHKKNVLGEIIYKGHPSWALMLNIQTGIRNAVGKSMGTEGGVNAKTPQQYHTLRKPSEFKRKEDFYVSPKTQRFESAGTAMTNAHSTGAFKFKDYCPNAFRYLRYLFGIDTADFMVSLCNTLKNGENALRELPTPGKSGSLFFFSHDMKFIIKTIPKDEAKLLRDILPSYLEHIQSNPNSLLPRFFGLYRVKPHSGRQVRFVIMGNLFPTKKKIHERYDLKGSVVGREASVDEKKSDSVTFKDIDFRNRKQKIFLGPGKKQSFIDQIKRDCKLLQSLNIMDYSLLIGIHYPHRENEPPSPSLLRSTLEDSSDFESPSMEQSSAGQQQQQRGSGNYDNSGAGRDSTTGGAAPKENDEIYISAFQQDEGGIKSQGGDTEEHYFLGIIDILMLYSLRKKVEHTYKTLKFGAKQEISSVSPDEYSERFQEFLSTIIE

T2 sequence (Q55GN6 whole entry T262E): as the sequence (Q55GN6 whole entry T262A) above, with A262E counted along it
T1 sequence (Q55GN6 whole entry): as the sequence (Q55GN6 whole entry T262A) above, with A262T counted along it

In the case of PI(4)P, the Km (PikI [1]) is reported as 5.74 ± 3.18 µM, the Km (PikI [2]) is reported as 6.39 ± 3.69 µM and the Km (PikI [3]) is reported as 4.6 ± 2.87 µM.

From paper PMC3969243, “A PIP5 Kinase Essential for Efficient Chemotactic Signaling” (Current Biology, 2014)
